Reference: patent US8592468B2, “Bacterial thioredoxin reductase inhibitors and methods for use thereof” (Thioredoxin Systems AB, priority 2006, dated 2013)
≈ marks a conversion by molar mass, not a printed value.

Tests used:
E. coli TrxR = E. coli TrxR (Escherichia coli (strain K12), UniProt P0A9P4); assay type: biochemical
Protocol: In FIG. 6A, 10 μM of ebselen (▴) and 10 μM of PZ25 (▪) were used as substrate of 25 nM calf thymus TrxR. In FIG. 6B, 10 μM of PZ25 was used as substrate for 10 nM calf thymus TrxR (◯) and 10 nM of E. coli TrxR (●). Reactions were started by adding enzymes in cuvettes containing 500 μl TE buffer with 100 μM NADPH, of which the consumption were followed by the changes of the absorption at 340 nm against identical blank without enzymes.
Reactions were started by adding enzymes to cuvettes containing 500 μl TE buffer with 100 μM NADPH and 16 μM compounds. The NADPH consumption was followed by the changes of the absorption at 340 nm against identical blank without enzymes.
The activity of the enzyme was determined at room temperature using an Ultrospec 3000 UV/Visual spectrophotometer (Amersham Biosciences). […] The enzyme-catalysed reactions were followed at 340 nm using the standard calculation of NADPH oxidation to NADP^+ with a molar extinction coefficient of 6200 M^−1 cm^−1 (32, 34). The conditions of the assay of bacterial thioredoxin reductase have been described (32, 34) using either 1 mM DTNB or 160 μM insulin as a substrate. In DTNB coupled assays, 240 μM NADPH and 1 mM DTNB were used in the TE buffer and formation of the TNB was measured at 412 nm, where TNB has an extinction coefficient of 13600 M^−1 cm^−1.
Further we examined the effect of ebselen in the reduction of disulphide by E. coli Trx and TrxR using both DTNB and insulin as substrates. […] FIGS. 4A and 4B show the effect of ebselen (4A) and ebselen diselenide (4B) on DTNB reduction by E. coli thioredoxin and thioredoxin reductase. Assays in semi-microcuvettes with 0.5 ml solution contained 0.24 mM NADPH, 1 mM DTNB in 50 mM Tris-Cl/1 mM EDTA, pH 7.5 buffer. (A) In the presence of 2 μM (grey filled points), 5 μM (white filled points) and 10 μM (black filled points) of E. coli Trx and 7.6 nM of E. coli TrxR with ebselen at concentrations of zero (squares), 0.5 μM (triangles), 1 μM (rhombus), and 2 μM (rounds), the increase in A412 was measured against a blank. (B) In the presence of 2 μM (grey filled points), 5 μM (white filled points) and 10 μM (black filled points) of E. coli Trx and 10 nM of E. coli TrxR, with ebselen diselenide at concentrations of zero (squares), 1 μM (triangles) and 2 μM (rounds), the increase in A412 was measured against a blank.

Helicobacter pylori = test: Bactericidal effects of ebselen on Helicobacter pylori (MBC); assay type: cell-based; parameters: key to Sensitivity to ebselen: S: sensitive; R: resistant
Protocol: The bacteria were cultured in 96-well microtiter plates with a microaerophilic environment at 37° C. for 4 days. The whole amount of the wells was then plated on GC agar plates containing different concentrations of ebselen. Ebselen was diluted in a two-fold series (0.39-200 μg/ml), the minimal bactericidal concentration (MBC) was determined by the first concentration with a total bactericidal effect.

E. coli DHB4 strains = test: Sensitivity of growth of E. coli DHB4 strains to ebselen (A600); assay type: cell-based
Protocol: Bacterial cells were grown in 5 mL cultures at 37° C., 120 rpm in 15 mL closed tubes containing Lutria-Bertani (LB) or M9 minimal media supplemented with 50 μg/ml Leu, Ile, 1× basal medium Eagle's vitamin solution (Invitrogen) and 2 μg/mL nicotinic acid. For the experiments regarding sensitivity of growth to ebselen, cells were initially grown overnight at 37° C. at the respective medium. The next day, equal cell numbers (as determined by A600) with dilutions of at least 1:50 were used to start 5 mL cultures containing different concentrations of Ebselen. Ebselen stock solutions were freshly prepared in DMSO. Extra DMSO was added to the cultures so that the total volumes of DMSO were the same per culture even at different final concentrations of Ebselen. Growth inhibition assays were carried out also on M9 minimal plates. The plates were covered with minimal top agar that contained equal cell number for all the strains examined. These were derived from overnight liquid cultures in M9 medium.
Sensitivity to ebselen was measured by inhibition of growth as determined by scattering (absorbance) at 600 nm at different times after inoculation.

[1] = tested on: mammalian thioredoxin reductases; test: Inhibition of mammalian thioredoxin reductases; assay type: biochemical
[2] = target: E. coli ribonucleotide reductase (Escherichia coli (strain K12), UniProt P00452+P69924); test: Inhibition of E. coli ribonucleotide reductase (data not shown); assay type: biochemical
Mammalian TrxR = settings: from reference; cited from earlier work
E. coli NHHJ = settings: strains of Enterobacteriaceae like E. coli NHHJ; cited from earlier work
wild type DHB4 E. coli = test: Bacterial inhibition by ebselen derivates, MIC; settings: Escherichia coli, DHB4E.COLI, 4 h, read-out: MIC for wild type DHB4 E. coli
Protocol: (§1) E. coli DHB4 strains wt, gshA^−, gor^−, oxyR^− were cultured overnight in LB medium. […] OD 600 was detected and DMSO was used as the control. […] The data are the means of two experiments.

Gor^- DHB4 E. coli = test: Bacterial inhibition by ebselen derivates, MIC; settings: Escherichia coli, 4 h, read-out: MIC for Gor^- DHB4 E. coli
Protocol: as §1

Sequence of E. coli ribonucleotide reductase (P00452 whole entry, looked up): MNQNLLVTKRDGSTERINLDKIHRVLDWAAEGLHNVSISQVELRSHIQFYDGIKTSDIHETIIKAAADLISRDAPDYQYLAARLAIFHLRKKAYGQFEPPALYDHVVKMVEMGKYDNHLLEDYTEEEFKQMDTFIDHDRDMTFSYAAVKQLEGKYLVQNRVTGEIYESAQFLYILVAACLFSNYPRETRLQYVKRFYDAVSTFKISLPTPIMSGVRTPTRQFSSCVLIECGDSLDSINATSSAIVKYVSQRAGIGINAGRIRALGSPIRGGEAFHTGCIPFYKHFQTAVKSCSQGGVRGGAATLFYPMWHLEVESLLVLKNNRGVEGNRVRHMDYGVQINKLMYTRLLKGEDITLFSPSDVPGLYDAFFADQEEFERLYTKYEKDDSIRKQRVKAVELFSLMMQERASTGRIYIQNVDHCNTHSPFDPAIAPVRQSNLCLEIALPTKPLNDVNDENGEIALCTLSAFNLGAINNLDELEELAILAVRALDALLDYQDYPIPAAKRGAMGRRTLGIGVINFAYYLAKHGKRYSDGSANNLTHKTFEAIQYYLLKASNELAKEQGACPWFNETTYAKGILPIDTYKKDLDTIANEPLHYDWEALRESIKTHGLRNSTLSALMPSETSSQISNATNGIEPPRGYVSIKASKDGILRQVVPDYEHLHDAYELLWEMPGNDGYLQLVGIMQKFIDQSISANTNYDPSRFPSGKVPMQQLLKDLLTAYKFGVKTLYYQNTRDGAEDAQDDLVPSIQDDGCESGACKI
Sequence of E. coli ribonucleotide reductase (P69924 whole entry, looked up): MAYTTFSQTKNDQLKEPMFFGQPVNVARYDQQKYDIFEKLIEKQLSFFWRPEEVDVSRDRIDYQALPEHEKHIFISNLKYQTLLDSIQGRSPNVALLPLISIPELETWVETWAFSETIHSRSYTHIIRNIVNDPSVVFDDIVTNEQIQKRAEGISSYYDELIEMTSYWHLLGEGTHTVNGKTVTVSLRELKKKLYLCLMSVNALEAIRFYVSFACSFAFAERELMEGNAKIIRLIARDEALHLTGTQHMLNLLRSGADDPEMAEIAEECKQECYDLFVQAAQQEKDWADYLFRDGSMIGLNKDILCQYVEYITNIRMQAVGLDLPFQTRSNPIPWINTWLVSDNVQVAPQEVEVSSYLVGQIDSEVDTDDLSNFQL
Sequence of E. coli TrxR (P0A9P4 2-321 limits assumed): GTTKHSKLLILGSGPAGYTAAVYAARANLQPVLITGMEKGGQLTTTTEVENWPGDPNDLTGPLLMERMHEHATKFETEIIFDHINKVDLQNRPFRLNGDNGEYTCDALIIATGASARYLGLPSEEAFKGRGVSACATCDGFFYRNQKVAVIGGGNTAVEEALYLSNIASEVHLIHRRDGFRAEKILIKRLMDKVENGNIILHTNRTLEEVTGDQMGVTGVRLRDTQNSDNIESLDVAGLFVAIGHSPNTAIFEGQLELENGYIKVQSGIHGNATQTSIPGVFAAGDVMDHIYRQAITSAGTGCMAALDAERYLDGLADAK

SMILES: O=c1c2ccccc2[se]n1-c1ccccc1 [EbSe 6, 2-phenyl-1,2-benzisoselenazol-3(2H)-one]
- oxidation of NADPH when directly added to E. coli TrxR and NADPH (E. coli TrxR): no oxidations of NADPH
- Sensitivity to ebselen (Helicobacter pylori; strain MR G162, ebselen 0.78 μg/ml): R
- Sensitivity to ebselen (Helicobacter pylori; strain MR G162, ebselen 1.56 μg/ml): R
- Sensitivity to ebselen (Helicobacter pylori; strain MR G162, ebselen 3.125 μg/ml): R
- Sensitivity to ebselen (Helicobacter pylori; strain MR G162, ebselen 6.25 μg/ml): R
- Sensitivity to ebselen (Helicobacter pylori; strain MR G162, ebselen 25 μg/ml): S
- Sensitivity to ebselen (Helicobacter pylori; strain MR G162, ebselen 50 μg/ml): S
- Sensitivity to ebselen (Helicobacter pylori; strain MR G162, ebselen 100 μg/ml): S
- Sensitivity to ebselen (Helicobacter pylori; strain MR G193, ebselen 0.78 μg/ml): R
- Sensitivity to ebselen (Helicobacter pylori; strain MR G193, ebselen 1.56 μg/ml): R
- Sensitivity to ebselen (Helicobacter pylori; strain MR G193, ebselen 3.125 μg/ml): R
- Sensitivity to ebselen (Helicobacter pylori; strain MR G193, ebselen 6.25 μg/ml): R
- Sensitivity to ebselen (Helicobacter pylori; strain MR G193, ebselen 25 μg/ml): S
- Sensitivity to ebselen (Helicobacter pylori; strain MR G193, ebselen 50 μg/ml): S
- Sensitivity to ebselen (Helicobacter pylori; strain MR G193, ebselen 100 μg/ml): S
- Sensitivity to ebselen (Helicobacter pylori; strain MS G6, ebselen 0.78 μg/ml): R
- Sensitivity to ebselen (Helicobacter pylori; strain MS G6, ebselen 1.56 μg/ml): R
- Sensitivity to ebselen (Helicobacter pylori; strain MS G6, ebselen 3.125 μg/ml): S
- Sensitivity to ebselen (Helicobacter pylori; strain MS G6, ebselen 6.25 μg/ml): S
- Sensitivity to ebselen (Helicobacter pylori; strain MS G6, ebselen 25 μg/ml): S
- Sensitivity to ebselen (Helicobacter pylori; strain MS G6, ebselen 50 μg/ml): S
- Sensitivity to ebselen (Helicobacter pylori; strain MS G6, ebselen 100 μg/ml): S
- Sensitivity to ebselen (Helicobacter pylori; strain MS G142, ebselen 0.78 μg/ml): R
- Sensitivity to ebselen (Helicobacter pylori; strain MS G142, ebselen 1.56 μg/ml): R
- Sensitivity to ebselen (Helicobacter pylori; strain MS G142, ebselen 3.125 μg/ml): R
- Sensitivity to ebselen (Helicobacter pylori; strain MS G142, ebselen 6.25 μg/ml): S
- Sensitivity to ebselen (Helicobacter pylori; strain MS G142, ebselen 25 μg/ml): S
- Sensitivity to ebselen (Helicobacter pylori; strain MS G142, ebselen 50 μg/ml): S
- Sensitivity to ebselen (Helicobacter pylori; strain MS G142, ebselen 100 μg/ml): S
- minimal bactericidal concentration (MBC) (Helicobacter pylori; two macrolide sensitive strains, listed as ebselen): 6.25 µg/mL (≈ 22.8 µM)
- wild type bacteria compared with gor^− and gshA^− strains (E. coli DHB4 strains): more resistant
- sensitivity of gshA^−trxA^− strain (E. coli DHB4 strains; LB medium): more sensitive
- sensitivity of strain trxA^−C^− compared with wild type (E. coli DHB4 strains; LB medium): similar, if not less
- growth of gor^− and gshA^− strains in presence of ebselen (E. coli DHB4 strains; minimal media (M9)): hardly grew
- inhibitory activity of mammalian thioredoxin reductases [1]: no inhibitory activity
- inhibition of E. coli ribonucleotide reductase [2]: effective direct inhibitor
- Km (Mammalian TrxR): 2.5 µM
- kcat (Mammalian TrxR): 9.8 s⁻¹
- kcat/KM (Mammalian TrxR): 3.92e+06 M⁻¹ s⁻¹
- concentration required to inhibit growth (E. coli NHHJ): up to 50 μg per ml
- MIC (wild type DHB4 E. coli): 40 µM (≈ 11 µg/mL)
- MIC (Gor^- DHB4 E. coli): 15 µM (≈ 4.11 µg/mL)
